# Results: PubChem BioAssay AID1259407 (Chemical Carcinogenesis Research Information System (CCRIS), 2018)
# Active and inactive are the calls of the source. The rule behind the calls is not given here.
# Tested on: CCRIS mutagenicity, Ames/micronucleus/aberration tests
# Test: CCRIS mutagenicity studies
# Conditions: Test System: AMES SALMONELLA TYPHIMURIUM
smiles,measurement,setting,value
Cc1cc(O)ccc1Cl,mutagenic call,"Strain/Indicator: TA97, Metabolic Activation: HAMSTER, LIVER, S-9, AROCLOR 1254 (10%), Method: PREINCUBATION",inactive; negative
same,mutagenic call,"Strain/Indicator: TA97, Metabolic Activation: HAMSTER, LIVER, S-9, AROCLOR 1254 (30%), Method: PREINCUBATION",inactive; negative
same,mutagenic call,"Strain/Indicator: TA97, Metabolic Activation: NONE, Method: PREINCUBATION",inactive; negative
same,mutagenic call,"Strain/Indicator: TA97, Metabolic Activation: NONE, Method: STANDARD PLATE",inactive; negative
same,mutagenic call,"Strain/Indicator: TA97, Metabolic Activation: RAT, LIVER, S-9, AROCLOR 1254 (10%), Method: PREINCUBATION",inactive; negative
same,mutagenic call,"Strain/Indicator: TA97, Metabolic Activation: RAT, LIVER, S-9, AROCLOR 1254 (30%), Method: PREINCUBATION",inactive; negative
same,mutagenic call,"Strain/Indicator: TA97, Metabolic Activation: RAT, LIVER, S-9, AROCLOR 1254, Method: STANDARD PLATE",active; positive
same,mutagenic call,"Strain/Indicator: TA98, Metabolic Activation: HAMSTER, LIVER, S-9, AROCLOR 1254 (10%), Method: PREINCUBATION",inactive; negative
same,mutagenic call,"Strain/Indicator: TA98, Metabolic Activation: HAMSTER, LIVER, S-9, AROCLOR 1254 (30%), Method: PREINCUBATION",inactive; negative
same,mutagenic call,"Strain/Indicator: TA98, Metabolic Activation: NONE, Method: PREINCUBATION",inactive; negative
same,mutagenic call,"Strain/Indicator: TA98, Metabolic Activation: NONE, Method: STANDARD PLATE",inactive; negative
same,mutagenic call,"Strain/Indicator: TA98, Metabolic Activation: RAT, LIVER, S-9, AROCLOR 1254 (10%), Method: PREINCUBATION",inactive; negative
same,mutagenic call,"Strain/Indicator: TA98, Metabolic Activation: RAT, LIVER, S-9, AROCLOR 1254 (30%), Method: PREINCUBATION",inactive; negative
same,mutagenic call,"Strain/Indicator: TA98, Metabolic Activation: RAT, LIVER, S-9, AROCLOR 1254, Method: STANDARD PLATE",inactive; negative
same,mutagenic call,"Strain/Indicator: TA100, Metabolic Activation: HAMSTER, LIVER, S-9, AROCLOR 1254 (10%), Method: PREINCUBATION",inactive; negative
same,mutagenic call,"Strain/Indicator: TA100, Metabolic Activation: HAMSTER, LIVER, S-9, AROCLOR 1254 (30%), Method: PREINCUBATION",inactive; negative
same,mutagenic call,"Strain/Indicator: TA100, Metabolic Activation: NONE, Method: PREINCUBATION",inactive; negative
same,mutagenic call,"Strain/Indicator: TA100, Metabolic Activation: NONE, Method: STANDARD PLATE",inactive; negative
same,mutagenic call,"Strain/Indicator: TA100, Metabolic Activation: RAT, LIVER, S-9, AROCLOR 1254 (10%), Method: PREINCUBATION",inactive; negative
same,mutagenic call,"Strain/Indicator: TA100, Metabolic Activation: RAT, LIVER, S-9, AROCLOR 1254 (30%), Method: PREINCUBATION",inactive; negative
same,mutagenic call,"Strain/Indicator: TA100, Metabolic Activation: RAT, LIVER, S-9, AROCLOR 1254, Method: STANDARD PLATE",inactive; negative
same,mutagenic call,"Strain/Indicator: TA104, Metabolic Activation: NONE, Method: STANDARD PLATE",inactive; negative
same,mutagenic call,"Strain/Indicator: TA104, Metabolic Activation: RAT, LIVER, S-9, AROCLOR 1254, Method: STANDARD PLATE",inactive; negative
same,mutagenic call,"Strain/Indicator: TA1535, Metabolic Activation: HAMSTER, LIVER, S-9, AROCLOR 1254 (10%), Method: PREINCUBATION",inactive; negative
same,mutagenic call,"Strain/Indicator: TA1535, Metabolic Activation: HAMSTER, LIVER, S-9, AROCLOR 1254 (30%), Method: PREINCUBATION",inactive; negative
same,mutagenic call,"Strain/Indicator: TA1535, Metabolic Activation: NONE, Method: PREINCUBATION",inactive; negative
same,mutagenic call,"Strain/Indicator: TA1535, Metabolic Activation: NONE, Method: STANDARD PLATE",inactive; negative
same,mutagenic call,"Strain/Indicator: TA1535, Metabolic Activation: RAT, LIVER, S-9, AROCLOR 1254 (10%), Method: PREINCUBATION",inactive; negative
same,mutagenic call,"Strain/Indicator: TA1535, Metabolic Activation: RAT, LIVER, S-9, AROCLOR 1254 (30%), Method: PREINCUBATION",inactive; negative
same,mutagenic call,"Strain/Indicator: TA1535, Metabolic Activation: RAT, LIVER, S-9, AROCLOR 1254, Method: STANDARD PLATE",inactive; negative
same,mutagenic call,"Strain/Indicator: TA1537, Metabolic Activation: HAMSTER, LIVER, S-9, AROCLOR 1254 (30%), Method: PREINCUBATION",inactive; negative
same,mutagenic call,"Strain/Indicator: TA1537, Metabolic Activation: NONE, Method: PREINCUBATION",inactive; negative
same,mutagenic call,"Strain/Indicator: TA1537, Metabolic Activation: NONE, Method: STANDARD PLATE",inactive; negative
same,mutagenic call,"Strain/Indicator: TA1537, Metabolic Activation: RAT, LIVER, S-9, AROCLOR 1254 (30%), Method: PREINCUBATION",inactive; negative
same,mutagenic call,"Strain/Indicator: TA1537, Metabolic Activation: RAT, LIVER, S-9, AROCLOR 1254, Method: STANDARD PLATE",inactive; negative
